From patent US11820822B2, “Methods for sensitizing cancer cells to T cell-mediated killing by modulating molecular pathways” (DANA-FARBER CANCER INSTITUTE, INC., priority 2017, dated 2023)

Assays:
[1] = tested on: B16F10-Cas9 cells co-cultured with Pmel-1 T cells; test: Genome-scale CRISPR-Cas9 screen, selection with Pmel-1 T cells; type: cell-based, mouse; conditions: for Pmel+ (sgRNA Log(2) fold change, Pmel-1 selection versus control T cells): Table 3, B16F10-Cas9 cells pre-treated with IFNγ, co-cultured with Pmel-1 T cells 1:1 for three days, negative = depleted, positive = enriched; for logFC: Log(2) fold change of gRNAs per gene, genes depleted in Pmel-1 screen
[2] = tested on: B16F10-Cas9 cells pulsed with SIINFEKL peptide, co-cultured with OT-I T cells; test: Genome-scale CRISPR-Cas9 screen, selection with OT-I T cells; type: cell-based, mouse; conditions: for OT1 (sgRNA Log(2) fold change, OT-I selection versus control T cells): Table 3, B16F10-Cas9 cells pulsed with SIINFEKL, co-cultured with OT-I T cells 1:1 for one day, negative = depleted, positive = enriched; for logFC: Log2 fold change of gRNAs per gene, OT-I screen, genes depleted (FDR < 0.05)

Row | Substance | Pmel+ (sgRNA Log(2) fold change, Pmel-1 selection versus control T cells) [1] | OT1 (sgRNA Log(2) fold change, OT-I selection versus control T cells) [2] | logFC [1] | logFC [2]
1 | AAAAATTCAACGTTGAAACA (chemistry not fully specified) | -3.43 | -1.37 | – | –
2 | AAAACGGTCTCAAGCCAATG (chemistry not fully specified) | 1.05 | -3.05 | – | –
3 | AAACAAGAGCACACTCCCCG (chemistry not fully specified) | 1.49 | -2.06 | – | –
4 | AAACATATAGTGTACCTCTA (chemistry not fully specified) | 10.21 | 2.36 | – | –
5 | AACTTCAGTAGCGGGCGACG (chemistry not fully specified) | 0.00 | -2.23 | – | –
6 | AAGACATATAGTTATCAGCA (chemistry not fully specified) | -1.83 | -2.22 | – | –
7 | AAGGGCCACTTACAATTAGG (chemistry not fully specified) | 2.10 | -0.44 | – | –
8 | AAGTCCTAGATAAAGCACAT (chemistry not fully specified) | 3.43 | 3.13 | – | –
9 | AATGCTGACGACTTTCAATG (chemistry not fully specified) | 0.00 | -2.31 | – | –
10 | ACACAACGCTAAGACAGTCG (chemistry not fully specified) | -0.22 | -3.60 | – | –
11 | ACAGATACGGAGTGTCCCGT (chemistry not fully specified) | 1.90 | 2.85 | – | –
12 | ACAGCCTCCCAATATCTCAG (chemistry not fully specified) | -0.54 | -3.56 | – | –
13 | ACAGGGAAAGCATGGGACAC (chemistry not fully specified) | 0.76 | -2.35 | – | –
14 | ACATTGATACGCACACTCAC (chemistry not fully specified) | 1.41 | -2.37 | – | –
15 | ACCTCCGAATGATCAATGGG (chemistry not fully specified) | -0.84 | -2.52 | – | –
16 | ACGACGAGGAGTTCGAATAC (chemistry not fully specified) | -0.86 | -2.76 | – | –
17 | ACGCAATGAAAAGGTTTAGG (chemistry not fully specified) | 2.19 | -2.24 | – | –
18 | ACTAATGGACTCGCACACGT (chemistry not fully specified) | 2.09 | -0.42 | – | –
19 | ACTCACTCTGGATAGCATAC (chemistry not fully specified) | 3.80 | 5.27 | – | –
20 | ACTCGTACAGCTCCTGTGGT (chemistry not fully specified) | 2.62 | 0.67 | – | –
21 | ACTTCAAAGTCCATGGCACA (chemistry not fully specified) | -0.63 | -2.45 | – | –
22 | ACTTCTGATTGGCGATTCTG (chemistry not fully specified) | -2.49 | -3.78 | – | –
23 | AGAAGCCACTCGGACTACTG (chemistry not fully specified) | 2.77 | -0.30 | – | –
24 | AGAAGGCAGGCAGAGTGGTG (chemistry not fully specified) | -0.75 | -2.13 | – | –

Row | Substance | Pmel+ (sgRNA Log(2) fold change, Pmel-1 selection versus control T cells) [1] | OT1 (sgRNA Log(2) fold change, OT-I selection versus control T cells) [2] | logFC [1] | logFC [2]
25 | AGAGATCTGCGCCATTTAAG (chemistry not fully specified) | -0.91 | -3.28 | – | –
26 | AGATTGTCAACAATGGAACT (chemistry not fully specified) | 0.00 | -2.17 | – | –
27 | AGCGTATAATCTTCGATCAG (chemistry not fully specified) | 1.35 | -2.46 | – | –
28 | AGGGAACCTCACTTCCAAGT (chemistry not fully specified) | 4.83 | 3.12 | – | –
29 | AGGTCACAATGTACCAACCC (chemistry not fully specified) | -2.61 | -1.71 | – | –
30 | AGTTGGATCGCGAATAAAGA (chemistry not fully specified) | -2.35 | -2.70 | – | –
31 | AGTTTGGAGCCCAGTAGGCA (chemistry not fully specified) | -2.19 | -2.77 | – | –
32 | ATACACAACTATGATGCCAT (chemistry not fully specified) | 5.64 | -1.48 | – | –
33 | ATAGAAATCTGACACTGCCG (chemistry not fully specified) | 0.00 | -2.12 | – | –
34 | ATAGCACCAAAGCCTAACAA (chemistry not fully specified) | 0.00 | -2.27 | – | –
35 | ATCACCTGGAGCATGCAGGA (chemistry not fully specified) | 2.72 | -0.29 | – | –
36 | ATGAGGTACAGCAGAAAGGT (chemistry not fully specified) | 0.90 | -2.05 | – | –
37 | ATGCAGATAATCCGCCAAAG (chemistry not fully specified) | 0.00 | -2.49 | – | –
38 | ATGGGATTGATCGTTACTGG (chemistry not fully specified) | 0.00 | -2.32 | – | –
39 | ATGTTGCCATCGTCACTGCA (chemistry not fully specified) | 3.04 | 0.41 | – | –
40 | ATTTCAAGAGATTCTATGCT (chemistry not fully specified) | 1.73 | -2.59 | – | –
41 | ATTTGGATTTCAATGTGAGG (chemistry not fully specified) | 3.20 | 5.19 | – | –
42 | Cd36 (guide TAGGATATGGAACCAAACTG; chemistry not fully specified) | – | – | −2.18 | –
43 | Chic2 (guide GCTCAAGTACTCGCCCGACC; chemistry not fully specified) | – | – | – | −2.09
44 | Ctps | – | – | – | −1.69
45 | Mrps21 (guide GCGTCGTCGACTTATGACTT; chemistry not fully specified) | – | – | – | −2.09
46 | Nudcd2 (guide GGTTCCTTGCGGGACTCCGT; chemistry not fully specified) | – | – | – | −2.09
47 | Sepsecs (guide CACCGGATCGTCCAATTCCG; chemistry not fully specified) | – | – | – | −2.62
48 | Tial1 (guide AATGCAATTGTGCATATGGG; chemistry not fully specified) | – | – | −2.01 | –
